Assay results reported in patent publication US8895733B2 (Novartis AG, priority 2010, dated 2014).
pIC50: −log10 of the molar value.

What follows are compounds tested against T1, Nav 1.7 (Homo sapiens, UniProt Q15858) (assay: Whole-cell voltage clamp electrophysiology, automated patch clamp (marker c in Table of Examples)). Conditions: marker c = Automated patch clamp data; read-out: Nav 1.7 activity.
T1 construct: expressed in transfected cells
Type: cell-based
In short: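 A voltage protocol weighted toward inactivated-state block was used to test compounds on stably expressing cells, with pulses from −65 mV holding to −10 mV test and −100 mV. Currents came from whole-cell automated patch-clamp recordings, either IonWorks Quattro or other automated instruments, usually in perforated-patch mode.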

T1 sequence (Q15858 whole entry): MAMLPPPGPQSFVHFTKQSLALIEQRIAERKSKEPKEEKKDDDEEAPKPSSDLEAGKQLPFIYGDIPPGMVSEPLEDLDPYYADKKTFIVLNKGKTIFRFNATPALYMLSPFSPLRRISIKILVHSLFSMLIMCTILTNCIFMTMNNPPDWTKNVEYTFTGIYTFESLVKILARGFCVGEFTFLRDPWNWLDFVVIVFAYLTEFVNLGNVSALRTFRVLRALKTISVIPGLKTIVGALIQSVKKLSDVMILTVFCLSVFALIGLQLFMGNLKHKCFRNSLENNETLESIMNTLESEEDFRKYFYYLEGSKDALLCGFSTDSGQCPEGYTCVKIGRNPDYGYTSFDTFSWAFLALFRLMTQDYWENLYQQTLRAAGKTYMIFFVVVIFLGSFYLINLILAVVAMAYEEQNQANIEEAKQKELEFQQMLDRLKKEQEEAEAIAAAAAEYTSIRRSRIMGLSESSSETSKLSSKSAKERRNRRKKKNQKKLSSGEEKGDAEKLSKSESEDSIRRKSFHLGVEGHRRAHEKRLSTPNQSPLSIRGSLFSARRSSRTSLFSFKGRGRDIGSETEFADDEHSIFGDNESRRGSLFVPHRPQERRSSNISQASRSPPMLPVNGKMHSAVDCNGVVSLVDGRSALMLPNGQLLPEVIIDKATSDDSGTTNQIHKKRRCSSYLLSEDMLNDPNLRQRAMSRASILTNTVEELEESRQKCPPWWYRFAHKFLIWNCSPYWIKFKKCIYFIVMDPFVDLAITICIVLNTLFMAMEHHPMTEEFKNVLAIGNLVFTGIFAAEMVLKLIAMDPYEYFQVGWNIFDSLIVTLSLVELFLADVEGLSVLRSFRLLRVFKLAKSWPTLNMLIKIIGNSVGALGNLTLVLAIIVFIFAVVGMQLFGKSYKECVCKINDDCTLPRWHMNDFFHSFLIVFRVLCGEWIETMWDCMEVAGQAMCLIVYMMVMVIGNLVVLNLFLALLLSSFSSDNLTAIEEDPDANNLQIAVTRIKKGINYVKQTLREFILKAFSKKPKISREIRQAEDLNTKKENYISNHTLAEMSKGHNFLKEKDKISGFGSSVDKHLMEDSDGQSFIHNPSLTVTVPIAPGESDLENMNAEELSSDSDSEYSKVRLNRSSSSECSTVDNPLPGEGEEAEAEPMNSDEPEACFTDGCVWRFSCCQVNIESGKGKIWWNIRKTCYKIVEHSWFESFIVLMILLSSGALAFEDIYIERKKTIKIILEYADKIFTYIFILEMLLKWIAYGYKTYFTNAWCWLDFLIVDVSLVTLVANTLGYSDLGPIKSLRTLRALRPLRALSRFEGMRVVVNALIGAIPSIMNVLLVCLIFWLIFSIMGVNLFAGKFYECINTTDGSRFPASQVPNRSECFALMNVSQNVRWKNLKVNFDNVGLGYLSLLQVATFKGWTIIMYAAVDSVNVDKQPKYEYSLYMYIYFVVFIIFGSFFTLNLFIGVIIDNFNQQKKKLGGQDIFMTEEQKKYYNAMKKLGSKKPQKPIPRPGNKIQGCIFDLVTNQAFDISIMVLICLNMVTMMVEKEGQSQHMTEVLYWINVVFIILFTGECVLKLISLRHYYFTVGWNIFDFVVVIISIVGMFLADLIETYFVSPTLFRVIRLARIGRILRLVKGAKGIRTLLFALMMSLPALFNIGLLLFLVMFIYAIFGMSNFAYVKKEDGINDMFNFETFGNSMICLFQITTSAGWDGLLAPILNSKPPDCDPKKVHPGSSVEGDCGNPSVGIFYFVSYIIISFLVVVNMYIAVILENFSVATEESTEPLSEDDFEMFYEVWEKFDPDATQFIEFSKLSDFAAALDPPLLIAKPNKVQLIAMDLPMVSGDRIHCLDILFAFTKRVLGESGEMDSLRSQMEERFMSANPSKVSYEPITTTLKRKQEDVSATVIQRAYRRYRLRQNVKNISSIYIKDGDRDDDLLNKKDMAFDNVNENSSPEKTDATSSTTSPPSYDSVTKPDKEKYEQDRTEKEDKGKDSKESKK

| pIC50 | SMILES |
| --- | --- |
| 6.27 | CN(c1ccccc1)c1nc(N)nc(-c2noc(N3CC4C(COc5ccccc5)C4C3)n2)n1 (stereo not shown) [Example 391, 2-N-methyl-6-{5-[6-(phenoxymethyl)-3-azabicyclo[3.1.0]hexan-3-yl]-1,2,4-oxadiazol-3-yl}-2-N-phenyl-1,3,5-triazine-2,4-diamine] |
| 5.73 | COc1ccc(NC(=O)c2nc(-c3nc(N)nc(N(C)c4ccccc4)n3)no2)cn1 [Example 258, 3-{4-Amino-6-[methyl(phenyl)amino]-1,3,5-triazin-2-yl}-N-(6-methoxypyridin-3-yl)-1,2,4-oxadiazole-5-carboxamide] |
| 6.19 | CN(c1ccccc1)c1nc(N)nc(-c2noc(-c3ncccc3F)n2)n1 [Example 482, 6-[5-(3-Fluoropyridin-2-yl)-[1,2,4]oxadiazol-3-yl]-N-methyl-N-phenyl-[1,3,5]triazine-2,4-diamine] |
| 6.59 | CN(c1ccccc1)c1nc(N)nc(-c2noc(N3CCC(Oc4ccccc4)CC3)n2)n1 [Example 336, 2-N-methyl-6-[5-(4-phenoxypiperidin-1-yl)-1,2,4-oxadiazol-3-yl]-2-N-phenyl-1,3,5-triazine-2,4-diamine] |
| 6.04 | CN(c1ccccc1)c1nc(N)nc(-c2noc(N3CC(OCC4CC4)C3)n2)n1 [Example 498, 6-{5-[3-(cyclopropylmethoxy)azetidin-1-yl]-1,2,4-oxadiazol-3-yl}-2-N-methyl-2-N-phenyl-1,3,5-triazine-2,4-diamine] |
| 5.94 | CN(c1ccccc1)c1nc(N)nc(-c2noc(-c3cccnn3)n2)n1 [Example 479, 2-N-methyl-2-N-phenyl-6-[5-(pyridazin-3-yl)-1,2,4-oxadiazol-3-yl]-1,3,5-triazine-2,4-diamine] |
| 5.85 | CN(c1ccccc1)c1nc(N)nc(-c2noc(-c3ccc(S(C)(=O)=O)cc3)n2)n1 [Example 421, 6-[5-(4-methanesulfonylphenyl)-1,2,4-oxadiazol-3-yl]-2-N-methyl-2-N-phenyl-1,3,5-triazine-2,4-diamine] |
| 5.01 | Nc1nc(Nc2cccc(F)c2)nc(-c2noc(C(=O)NC3COC3)n2)n1 [Example 250, 3-{4-amino-6-[(3-fluorophenyl)amino]-1,3,5-triazin-2-yl}-N-(oxetan-3-yl)-1,2,4-oxadiazole-5-carboxamide] |
| 5.59 | CN(c1ccccc1)c1nc(N)nc(-c2noc([C@H]3CCCN3C(=O)CC3CC3)n2)n1 [Example 449, 1-[(2R)-2-(3-{4-amino-6-[methyl(phenyl)amino]-1,3,5-triazin-2-yl}-1,2,4-oxadiazol-5-yl)pyrrolidin-1-yl]-2-cyclopropylethan-1-one] |
| 6.54 | CN(c1ccccc1)c1nc(N)nc(-c2noc(C3CCC(Oc4ccccc4)CC3)n2)n1 (stereo not shown) [Example 429, 2-N-methyl-6-[5-(4-phenoxycyclohexyl)-1,2,4-oxadiazol-3-yl]-2-N-phenyl-1,3,5-triazine-2,4-diamine] |
| 5.04 | Nc1nc(Nc2ccc(F)c(Cl)c2)nc(-c2noc(-c3ccc(OCC(F)(F)F)nc3)n2)n1 [Example 413, 2-N-(3-Chloro-4-fluorophenyl)-6-{5-[6-(2,2,2-trifluoroethoxy)pyridin-3-yl]-1,2,4-oxadiazol-3-yl}-1,3,5-triazine-2,4-diamine] |
| 5.33 | CCOC1CCN(C(=O)c2nc(-c3nc(N)nc(N(C)c4ccccc4)n3)no2)CC1 [Example 458, 6-{5-[(4-ethoxypiperidin-1-yl)carbonyl]-1,2,4-oxadiazol-3-yl}-2-N-methyl-2-N-phenyl-1,3,5-triazine-2,4-diamine] |
| 7.48 | CC(OCc1ccc(-c2nc(-c3nc(N)nc(Nc4ccccc4)n3)no2)cn1)C(F)(F)F (stereo not shown) [Example 210, 2-N-phenyl-6-[5-(6-{[(1,1,1-trifluoropropan-2-yl)oxy]methyl}pyridin-3-yl)-1,2,4-oxadiazol-3-yl]-1,3,5-triazine-2,4-diamine] |
| 6.85 | CN(c1ccccc1)c1nc(N)nc(-c2noc(N3CC[C@@H](Oc4ccccc4)C3)n2)n1 [Example 434, 2-N-methyl-6-{5-[(3R)-3-phenoxypyrrolidin-1-yl]-1,2,4-oxadiazol-3-yl}-2-N-phenyl-1,3,5-triazine-2,4-diamine] |
| 7.25 | CC(OCC(F)(F)F)c1ccc(-c2nc(-c3nc(N)nc(N(C)c4ccccc4)n3)no2)nc1 (stereo not shown) [Example 358, 2-N-Methyl-2-N-phenyl-6-(5-{5-[1-(2,2,2-trifluoroethoxy)ethyl]pyridin-2-yl}-1,2,4-oxadiazol-3-yl)-1,3,5-triazine-2,4-diamine] |
| 6.41 | CC(C)OC(=O)c1ccc(-c2nc(-c3nc(N)nc(N(C)c4ccccc4)n3)no2)cn1 [Example 289, propan-2-yl 5-(3-{4-amino-6-[methyl(phenyl)amino]-1,3,5-triazin-2-yl}-1,2,4-oxadiazol-5-yl)pyridine-2-carboxylate] |
| 5.10 | CN(c1ccccc1)c1nc(N)nc(-c2noc([C@@H]3CCCN3C(=O)CC(F)(F)F)n2)n1 [Example 451, 1-[(2S)-2-(3-{4-amino-6-[methyl(phenyl)amino]-1,3,5-triazin-2-yl}-1,2,4-oxadiazol-5-yl)pyrrolidin-1-yl]-3,3,3-trifluoropropan-1-one] |
| 6.36 | Nc1nc(Nc2ccccc2)nc(-c2noc(N3CC4C(COc5ccccc5)C4C3)n2)n1 (stereo not shown) [Example 392, 6-{5-[6-(phenoxymethyl)-3-azabicyclo[3.1.0]hexan-3-yl]-1,2,4-oxadiazol-3-yl}-2-N-phenyl-1,3,5-triazine-2,4-diamine] |
| 5.90 | CC(C)NC(=O)c1nc(-c2nc(N)nc(Nc3cccc(F)c3)n2)no1 [Example 234, 3-{4-amino-6-[(3-fluorophenyl)amino]-1,3,5-triazin-2-yl}-N-(propan-2-yl)-1,2,4-oxadiazole-5-carboxamide] |
| 6.42 | COc1ccccc1-c1nc(-c2nc(N)nc(Nc3cccc(F)c3)n2)no1 [Example 248, 2-N-(3-fluorophenyl)-6-[5-(2-methoxyphenyl)-1,2,4-oxadiazol-3-yl]-1,3,5-triazine-2,4-diamine] |

Same assay, conditions: marker c: Automated patch clamp data; read-out: Nav 1.7 activity

| pIC50 | SMILES |
| --- | --- |
| 6.47 | Nc1nc(Nc2ccccc2)nc(-c2noc(N3CCC(COCC(F)(F)F)CC3)n2)n1 [Example 174, 2-N-Phenyl-6-(5-{4-[(2,2,2-trifluoroethoxy)methyl]piperidin-1-yl}-1,2,4-oxadiazol-3-yl)-1,3,5-triazine-2,4-diamine] |
| 6.70 | COc1ccccc1-c1nc(-c2nc(N)nc(N(C)c3ccccc3F)n2)no1 [Example 89, N-(2-Fluoro-phenyl)-6-[5-(2-methoxy-phenyl)-[1,2,4]oxadiazol-3-yl]-N-methyl-[1,3,5]triazine-2,4-diamine] |
| 6.60 | CC(C)S(=O)(=O)N1CCC(c2nc(-c3nc(N)nc(N(C)c4ccccc4)n3)no2)CC1 [Example 171, 2-N-methyl-2-N-phenyl-6-{5-[1-(propane-2-sulfonyl)piperidin-4-yl]-1,2,4-oxadiazol-3-yl}-1,3,5-triazine-2,4-diamine] |
| 5.86 | CN(C)CCN(c1ccccc1)c1nc(N)nc(-c2noc(-c3ccco3)n2)n1 [Example 69, N-(2-Dimethylamino-ethyl)-6-(5-furan-2-yl-[1,2,4]oxadiazol-3-yl)-N-phenyl-[1,3,5]triazine-2,4-diamine] |
| 6.40 | Nc1nc(-c2noc(-c3ccco3)n2)nc(N(CC2CC2)c2ccccc2)n1 [Example 121, N-Cyclopropylmethyl-6-(5-furan-2-yl-[1,2,4]oxadiazol-3-yl)-N-phenyl-[1,3,5]triazine-2,4-diamine] |
